Reference: patent US20070270371A1, “Dosing and scheduling of oligomers” (priority 2006, published 2007)
{FAM} = fluorescein (FAM) label

Legend:
[1] = system: PC-3-Bcl-2 xenograft tumors; settings: mouse, in vivo
Protocol: When the average tumor size was 65 mm^3, animals were randomized and the right flank of the xenograft tumor bearing mice were pre-treated with 5 Gy X-ray prior to administration of fluoresceinated G3139 oligonucleotide intravenously at a low dose of 6 mg/kg, daily for 5 days (top left panel); at a high dose of 10 mg/kg on given intermittently on days 1, 3, and 5 (top middle panel); a single dose of 30 mg/kg on the same day of X-ray pre-treatment (top right panel); and non-treated left flank bearing xenograft tumor (bottom 3 panels). Each mouse received a total dose of 30 mg/kg fluorescent G3139.
On day 8, animals were sacrificed, subcutaneous and organs were resected, and counterstained with DAPI as an internal staining control for nucleus staining. The resected tissues were processed as in Example 1 described above and fluorescence intensity was recorded using a stereomicroscope (Zeiss, 40) and spot camera (Qimaging). The signal intensity was recorded in three areas of each sample and quantified using MCID Elite (Imaging Research) and averaged to yield the reported intensities.

[2] = in vivo, sc; cited from earlier work
[3] = system: A549 NSCLC xenograft tumors; test: Tumor growth of NSCLC xenografts under G3139 dosing schedules (Example 4); type: in vivo, mice
Protocol: In vivo tumor model: NSCLC xenograft tumors were established in the flank of male athymic nude mice by injecting subcutaneously 5 to 9×10^6 A549 tumor cells. […] Twenty mg/kg injections every other days for 4 weeks (total 14 days) were also carried. At 30 mg/kg and 40 mg/kg, mice were injected every two- or three-day intervals respectively. (FIG. 6). The tumor growth were measured 15 - 55 days post-implantation and the tumor volumes were calculated based on the formula: [(width)^2×length]/2. […] Tumors in mice injected with higher doses but interminttently with 2-3 days intervals also grew slower than mice treated with daily doses at lower doses.

[4] = human, in vivo, iv; cited from earlier work

Substance	staining of tumor cells [1]	mean plasma half-life for elimination [2]	steady state plasma levels observed after the beginning of infusion [2]	tumor growth ([3]; 20 mg/kg IP every other day vs 10 mg/kg daily (total 280 mg/kg), 15-55 days post-implantation)	tumor growth ([3]; higher doses intermittently at 2-3 day intervals vs daily lower doses)	persistence of the oligonucleotide in tumor after administration of radiation and G3139 ([1]; iv, 30 mg/kg)	plasma half life [4]	time until plasma concentration becomes undetectable [4]
FAM-G3139: fluorescent G3139, F - TCTCCCAGCGTGCGCCAT-3′, phosphorothioate oligonucleotide targeting bcl-2 (all phosphorothioate, 5' {FAM}, sugars by position and methylation of C not given here)	no visible staining							
oblimersen [G3139]		7.46 h	48 h	grew slower	grew slower	7 days	about 60 minutes	≤ 4 h
